Consider 76 compounds from PubChem BioAssay AID1996.

Values after ≈ are worked out from the molar mass of the structure shown. Where only a bound is given, the exact number is not on record here.

For this data set the following is noted: buffer; pH 7.4; 200.0 µM.
As for `C#CCOC(=O)Nc1cnccc1C(F)(F)F`, the solubility (kinetic) (commonly the concentration staying in solution when a stock, usually in DMSO, is diluted into the medium) was above 36.6 µg/mL.
For `O=C(CN1CCN(c2ccccc2F)CC1)c1ccc(O)c(O)c1`, the solubility (kinetic) stood at 47.6 µg/mL (≈ 144 µM).
Under `C=CCC1Cc2c(cccc2[N+](=O)[O-])C(CC=C)N1` (stereo unspecified) stands 30.5 µg/mL (≈ 118 µM); under `COc1ccccc1CNC(=O)C(C)Oc1ccccc1` (stereo unspecified), above 42.8 µg/mL; under `O=C(CN1C(=O)NC2(CCCCCCC2)C1=O)NCc1ccccc1`, 47.7 µg/mL (≈ 139 µM).
In turn, `COc1ccc(C(=O)NC(C)C2CC3CCC2C3)cc1` (stereo unspecified) yielded a solubility (kinetic) of 8.1 µg/mL (≈ 29.6 µM).
`N#Cc1c(NCCCO)nc(NCc2ccccc2)c2c1CCN(Cc1ccccc1)C2` displayed a solubility (kinetic) of 7.7 µg/mL (≈ 18 µM).
`CCN(CC)C(=O)CSc1nc(C)cc(C)c1C#N`: the kinetic solubility was determined as 15.1 µg/mL (≈ 54.4 µM).
`O=C(c1ccc(-c2cc(Cl)ccc2Cl)o1)N1CCOCC1` registered a solubility (kinetic) of 11.3 µg/mL (≈ 34.6 µM).
Compound `NS(=O)(=O)c1cccc(NS(=O)(=O)c2cccc(C(F)(F)F)c2)c1` came in with a solubility (kinetic) above 57.1 µg/mL.
`CCOc1ccc(NC(=S)N2c3ccccc3CC2C)cc1` (stereo unspecified) displayed a solubility (kinetic) of 4.4 µg/mL (≈ 14.1 µM).
The figure for `Cc1ccc(OCC(=O)Nc2ccccc2C(=O)NC2CC2)cc1C` is 0.8 µg/mL (≈ 2.36 µM); for `Cc1sc(NC(=O)CCC(=O)O)c(C#N)c1C` it is above 37.8 µg/mL; for `O=C(NCCNC(=O)c1cnccn1)c1ccc(Cl)cc1` it is above 45.7 µg/mL.
For `Cc1cc(N)c2ccccc2n1`, the kinetic solubility is above 23.7 µg/mL.
Under `CC(=O)CC1=NC(C)(C)Cc2ccccc21` stands 17.2 µg/mL (≈ 79.9 µM); under `CN1CCC(OC(=O)COc2ccc(F)cc2)CC1.Cl`, above 45.6 µg/mL; under `COc1ccc(CC(=O)OCC(=O)NCc2ccc(C)cc2)cc1OC`, above 53.6 µg/mL.
The figure for `c1ccc(-c2cccs2)nc1` is 1.9 µg/mL (≈ 11.8 µM).
The figure for `CCCC(=O)Nc1cc(C(F)(F)F)ccc1N1CCOCC1` is 44.6 µg/mL (≈ 141 µM); for `O=C(c1ccccc1Cl)N1CCSCC1` it is 31.7 µg/mL (≈ 131 µM); for `CC(C)CN(C(=O)c1ccco1)c1nc2ccccc2s1` it is 2.2 µg/mL (≈ 7.32 µM).
In turn, `CCOC(=O)Nc1cccc(OCC(=O)Nc2ccc3c(c2)CCC3)c1` showed a solubility (kinetic) of 5.2 µg/mL (≈ 14.7 µM).
The figure for `COc1ccccc1NC(=O)c1ccc(-c2ccccc2[N+](=O)[O-])o1` is 1.6 µg/mL (≈ 4.73 µM); for `CC1CCCCN1C(=O)CCS(=O)(=O)c1cccc2nonc12` (stereo unspecified) it is 41.8 µg/mL (≈ 124 µM).
The figure for `O=c1cc(CN2CCOCC2)c2cc(Cl)ccc2o1` is above 42 µg/mL; for `CC(O)CNc1ccc([N+](=O)[O-])cc1S(=O)(=O)N1CCOCC1` (stereo unspecified) it is above 51.8 µg/mL.
In turn, `CCCN(CC(=O)Nc1ccccc1OC)C(=O)Cc1ccccc1F` showed a kinetic solubility of 38.9 µg/mL (≈ 109 µM).
Under `CC(C)(C)c1csc(NC(=O)C2=COCCO2)n1` stands 40.2 µg/mL (≈ 150 µM); under `Cc1ccc(C)c(NC(=O)COC(=O)Cc2ccsc2)c1`, 42.5 µg/mL (≈ 140 µM); under `COc1cccc(CNCc2ccco2)c1O.O=C(O)C(=O)O`, above 48.5 µg/mL.
The figure for `CCN1C(=O)CC(NNC(=O)c2ccccc2)C1=O` (stereo unspecified) is above 39.2 µg/mL.
Under `Cc1ccc(CNC(=O)c2cncc(Br)c2)cc1` stands 9.6 µg/mL (≈ 31.5 µM); under `Cn1cc2cc(NC(N)=S)ccc2n1`, above 30.9 µg/mL; under `COC(=O)Cn1c(C(O)c2ccccc2)nc2ccccc21` (stereo unspecified), above 44.4 µg/mL.
As to `COc1cccc(CC(=O)Nc2ccc(S(=O)(=O)N3CCCCC3)cc2)c1`, the kinetic solubility amounted to 10.1 µg/mL (≈ 26 µM).
`O=[N+]([O-])c1ccc(N2CCCCC2)nc1N1CCCCC1`: the kinetic solubility is 5.3 µg/mL (≈ 18.3 µM).
Turning to `O=C(NCCc1ccccc1)c1ccc2c(c1)OCCO2`, the kinetic solubility is above 42.5 µg/mL.
Under `Cc1csc(NC(=O)c2ccc[nH]c2=O)n1` stands above 35.3 µg/mL; under `O=C(O)/C=C/c1ccccc1[N+](=O)[O-]`, above 29 µg/mL.
Under `O=C(c1ccccc1)c1cnc[nH]1` stands 25.6 µg/mL (≈ 149 µM).
In the case of `Cc1ccc(C(=O)Nc2ccc3ncccc3c2)cc1`, the solubility (kinetic) turned out to be 6.9 µg/mL (≈ 26.3 µM).
Under `COc1cccc(OC)c1C(=O)NC(=S)NCc1cccnc1` stands 11.3 µg/mL (≈ 34.1 µM); under `CC1CC(CCN)(c2ccccc2)C(C)CN1C.Cl` (stereo unspecified), above 47.9 µg/mL.
The compound `Clc1ccc2nc(-c3ccc4c(c3)OCO4)cn2c1` came in with a solubility (kinetic) below 0.3 µg/mL.
Regarding `CC(=O)c1ccc(N2CCCCC2)c(F)c1`, the kinetic solubility amounted to 12.1 µg/mL (≈ 54.7 µM).
Under `O=C(Nc1ccc(Cl)cc1)C(Cl)C(=O)c1ccccc1` (stereo unspecified) stands 11.8 µg/mL (≈ 38.3 µM).
The figure for `Cc1ccc2nc(N3CC(C)OC(C)C3)nc(-c3ccccc3)c2c1` (stereo unspecified) is 2.2 µg/mL (≈ 6.6 µM); for `O=S(=O)(Nc1ccon1)c1ccc(Br)cc1` it is 32.2 µg/mL (≈ 106 µM).
Under `CN(CC(=O)Nc1ccc(F)cc1)C(=O)Cc1ccsc1` stands above 46 µg/mL; under `O=C(NCCCN1CCCC1=O)Nc1ccccc1F`, above 41.9 µg/mL; under `O=C(O)C1CC(=O)N(CCc2ccc(F)cc2)C1` (stereo unspecified), above 37.7 µg/mL.
Compound `COc1cc([N+](=O)[O-])ccc1N1C(=O)C2C3C=CC(C4CC34)C2C1=O` (stereo unspecified) displayed a solubility (kinetic) of 7.2 µg/mL (≈ 21.2 µM).
The figure for `O=C1C(Nc2ccccc2)=C2CCCC=C2N1c1ccccc1` is 1.8 µg/mL (≈ 5.95 µM); for `COc1ccc(CCNC(=O)CCc2ccc(OC)cc2)cc1` it is 11.4 µg/mL (≈ 36.4 µM); for `CN(C)c1ccc(NC(=O)Nc2csc3ccccc23)cc1` it is 0.7 µg/mL (≈ 2.25 µM).
Under `O=C(Nc1ccccc1)C1CCOC1=O` (stereo unspecified) stands 26.3 µg/mL (≈ 128 µM).
On to `Cc1ccccc1CN1C(=O)c2ccccc2S1(=O)=O`, for which the kinetic solubility turned out to be 2.5 µg/mL (≈ 8.7 µM).
The figure for `COC(=O)CC1C(=O)NC2CCCCC2N1C(=O)CCl` (stereo unspecified) is above 45.4 µg/mL; for `O=C(Nc1ccc(Cl)c(S(=O)(=O)N2CCOCC2)c1)c1cccs1` it is 3.2 µg/mL (≈ 8.27 µM).
Under `Cn1c2ccc(F)cc2c2ncn(Cc3ccccn3)c(=O)c21` stands 7.9 µg/mL (≈ 25.6 µM); under `O=C(NCCCn1ccnc1)c1ccc(C(F)(F)F)cc1`, above 44.6 µg/mL.
Under `Cc1ccc(C)c(N2CC(C(=O)Nc3cc(C)on3)CC2=O)c1` (stereo unspecified) stands 40.3 µg/mL (≈ 129 µM); under `CCOC(=O)c1nn(-c2ccc3c(c2)OCCO3)cc1O`, above 43.5 µg/mL; under `CN(C(=O)c1ccc(Br)o1)C1(C)CCS(=O)(=O)C1` (stereo unspecified), above 50.4 µg/mL.
Compound `CCC(C)NCCCOc1ccc(C)cc1OC` (stereo unspecified) returned a kinetic solubility of 35.1 µg/mL (≈ 140 µM).
The figure for `CCOc1ccc(NC(=O)c2ccc(CC)s2)c([N+](=O)[O-])c1` is below 0.3 µg/mL.
Under `Cc1ccc(S(=O)(=O)N2CCN(C(=O)COC(=O)c3cc([N+](=O)[O-])ccc3NCCO)CC2)c(C)c1` stands 17 µg/mL (≈ 32.7 µM); under `O=C(O)c1ccc(S(=O)(=O)NC2CCCCCC2)cc1`, above 44.6 µg/mL.
The figure for `Cc1cc(C)c2nc(NCc3ccccc3O)sc2c1` is below 0.3 µg/mL; for `CC(NC(=O)CN1CCN(Cc2cccc(F)c2)CC1)c1ccccc1` (stereo unspecified) it is above 53.3 µg/mL.
Turning to `CCc1ccc(C(=O)NNC(=O)[C@H](C)NC(=O)c2ccco2)cc1`, the solubility (kinetic) is above 49.4 µg/mL.
The figure for `COc1ccc(CCNC(=O)c2csc3c2CCCC3)cc1OC` is above 51.8 µg/mL; for `O=C(Cc1c(F)cccc1Cl)OCC(=O)N1CCc2ccccc21` it is 9.5 µg/mL (≈ 27.3 µM); for `C=CCNc1nc2c(c(=O)[nH]c(=O)n2C)n1CCOc1ccccc1` it is 3.3 µg/mL (≈ 9.67 µM).
Regarding `Cc1ccc(NC(=O)Cc2c(O)c3ccccc3[nH]c2=O)c(C)c1`, the solubility (kinetic) was 23 µg/mL (≈ 71.3 µM).
